Where two headings read alike, the source gives them in different places.
How the values were obtained:
[1] = Pharmacokinetics study in Swiss albino mice; type: in vivo; conditions: for C0 / AUC(0-t): iv, 50 mg/kg
Procedure: (§1) Five µL of the IS ([…]) and 20 µL of 50, 40, 30, 20, 10, 8, and 4 µg/mL PsA standard solutions were combined with 15 µL freshly extracted blank mouse plasma. 300 µL of a 70% EtOAc/30% isopropanol mixture was added and vortexed for 30 s. Following centrifugation at 15,000× g for 10 min, the supernatant was transferred to a 2 mL Eppendorf tube for nitrogen evaporation. The residues were reconstituted in 25 µL HPLC-grade MeOH before being subjected to 30 s sonication followed by centrifugation at 15,000× g for 10 min. Afterwards, the entire sample was immediately injected for RP-HPLC analysis. The mouse plasma samples used in the PK study were subjected to the same extraction method, minus the addition of the PsA standard solutions. After weighing, each mouse organ was reconstituted in 500 µL PBS, then homogenized using the MISONIX Sonicator (Division of QSonica LLC, Newtown, CT, USA). Samples were centrifuged at 15,000× g for 10 min, and the supernatant was collected and transferred to a 2 mL Eppendorf. About 5 µL of IS (25 µL/mL) and 300 µL of a 70% EtOAc/30% isopropanol mixture were added to 100 µL of supernatant and vortexed for 30 s. Following centrifugation at 15,000× g for 10 min, the supernatant was transferred to a 2 mL Eppendorf tube and evaporated under N2. The remains were reconstituted in 40 µL HPLC-grade methanol before being subjected to 30 s sonication followed by centrifugation at 15,000× g for 10 min.
The mean plasma concentration-time curve was plotted using GraphPad Prism software version 8.0.2 (La Jolla, CA, USA). PK parameters were obtained through non-compartmental analysis following intravenous bolus input using PK Solver 2.0 [52].
For the PKs study, twelve male and twelve female healthy Swiss albino mice were randomly selected and placed in 3 groups (n = 4/sex/group). The mice received free access to drinking water and pelleted regular rodent chow (5% fat content, Cat# 7012, Envigo/Teklad, Madison, WI, USA) until the day before experimentation, after which they were fasted for 8 h and allowed only free access to drinking water. Mice were administered PsA formulated in sterile PBS-DMSO (925:75) + 0.2% Tween 80 at a volume not exceeding 100 µL intravenously through recto-orbital injection. Each animal was anaesthetized using Isoflurane (Piramal Critical Care Inc., Bethlehem, PA, USA) for 1–2 min before injection. Disposable sterilized syringes (Becton, Dickinson and Company, Franklin Lakes, NJ, USA) were used for blood collection as well as administration of PsA at a dose of 50 mg/kg and volume, adjusted to the mouse body weight, no greater than 100 µL for animal safety considerations. Blood samples of around 50–70 µL were collected through the tail vein in 600 µL Eppendorf tubes at time points 0.25, 0.75, and 1.5 h for groups 1 and 4, 0.083, 0.5, and 1 h for groups 2 and 5, in addition to 2 and 4 h for groups 3 and 6 following intravenous injection and subjected to immediate centrifugation. From the plasma, 15 µL was transferred into clean 600 µL Eppendorf tubes and immediately subjected to the extraction method listed above and analyzed using HPLC.

Swiss albino mice = system: Swiss albino mice; design: method as in PMID 36771126; conditions: cited from earlier work
[2] = Qualitative tissue distribution (biodistribution) study after IP dosing; type: in vivo, Swiss albino mice; conditions: IP 125 mg/kg, 7 min after dosing
Procedure: as §1
For the biodistribution study, four healthy male and two healthy female Swiss albino mice were randomly selected and placed in 2 groups (n = 3/group). The mice received free access to drinking water and pelleted regular rodent chow (Cat# 7012, Envigo/Teklad, Madison, WI, USA) until the day before experimentation, after which they were fasted for 8 h and allowed only free access to drinking water. One group was IP administered 125 mg/kg PsA formulated in PBS-DMSO (925:75) + 0.2% Tween 80 at a body weight-adjusted volume not exceeding 300 µL. […] Collected samples were immediately extracted using the described method above and analyzed using HPLC.

In the case of CC/C=C\[C@H](O)[C@H](O)C1=C(C)C(=O)[C@]2(O1)C(=O)N[C@@](OC)(C(=O)c1ccccc1)[C@@H]2O [PsA, pseurotin A], the “plasma detectability over time by HPLC” value ([1]; IV 50 mg/kg) is reported as “undetectable by the HPLC method after 2 h”, the C0 ([1]; both sexes, Swiss albino, mouse, plasma, IV 50 mg/kg, read-out: initial concentration range) is reported as 24600 to 34200 ng/mL and the AUC(0-t) ([1]; both sexes, Swiss albino, mouse, plasma, single IV 50 mg/kg, 8 h fasting, non-compartmental, mean, read-out: AUC0–t) is reported as 19100 ng·h/mL. For the same compound, the AUC(0-t) ([1]; both sexes, Swiss albino, mouse, plasma, single IV 50 mg/kg, 8 h fasting, non-compartmental, mean, read-out: AUCt–∞) was 20900 ng·h/mL, the C0 ([1]; both sexes, Swiss albino, mouse, plasma, single IV 50 mg/kg, 8 h fasting, non-compartmental, mean, read-out: C0, initial plasma concentration) was 37300 ng/mL and the Vd ([1]; both sexes, Swiss albino, mouse, plasma, IV 50 mg/kg, read-out: average volume of distribution (Vd)) was 1.83 L/kg. For the same compound, the MRT ([1]; both sexes, Swiss albino, mouse, plasma, single IV 50 mg/kg, 8 h fasting, non-compartmental, mean, read-out: MRT, mean residence time) was 44.4 min, the half-life ([1]; both sexes, Swiss albino, mouse, plasma, single IV 50 mg/kg, 8 h fasting, non-compartmental, mean, read-out: T1/2, elimination half-life (converted)) was 31.8 min and the Vd ([1]; both sexes, Swiss albino, mouse, plasma, single IV 50 mg/kg, 8 h fasting, non-compartmental, mean, read-out: Vd, volume of distribution) was 1.83 L. The “AUMC, area under the moment curve” value ([1]; single IV 50 mg/kg, 8 h fasting, non-compartmental, mean) was 15410 ng·h/mL, the “decrease in body weight” value (Swiss albino mice; 500 mg/kg female dosing group, oral gavage, after 14 days) was 45% and the “major organ toxicity (liver, lung, heart, brain, kidneys)” value (Swiss albino mice; 14-day acute toxicity, 10, 250 and 500 mg/kg oral gavage) was “neither major organ toxicity”. The LD50 (Swiss albino mice; Up-and-Down acute toxicity procedure, oral, male and female Swiss albino mice) was greater than 550 mg/kg, the “PsA HPLC peak in brain tissue (BBB crossing)” value [2] was “did not display PsA peak” and the “PsA HPLC peak in liver, kidney, heart and spleen tissue” value [2] was “prominent PsA peak”. For the same compound, the “PsA HPLC peak in plasma” value [2] was “prominent PsA peak”.

Source: publication PMC12525728, “Safety, Pharmacokinetics, Translational and Molecular Mechanistic Insights on the Prostate Cancer Recurrence Suppressor Pseurotin A” (Molecules, 2025)
